Laboratory results taken from patent publication US8906868B2, “Aminoglycoside derivatives” (Rempex Pharmaceuticals, Inc., priority 2010, dated 2014).
≈ marks a conversion by molar mass, not a printed value. Like-named read-outs stand apart in the source and are kept apart here.

Assays:
ECM6003 rmtB = test: microbe, parasite or virus in culture; type: cell-based, Escherichia coli; conditions: Escherichia coli
In short: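 Broth microdilution per CLSI M7-A7 in cation-adjusted Mueller Hinton broth with 2-fold serial dilutions and 5×10^5 CFU/ml inoculum. Incubated 18 hours at 35 °C; MIC read by turbidity at 600 nm and confirmed visually.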

EC1002 aph(3′)-IV = test: organism not typed; type: cell-based; conditions: read-out: Compound MIC on Bacterial Strains: EC1002 aph(3′)-IV
In short: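 Minimum inhibitory concentration was the endpoint, read spectrophotometrically at 600 nm and verified visually after an 18-hour, 35° C incubation in CaMHB at 5×10^5 CFU/ml.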

EC1001 acc(6′)-Ib = test: microbe, parasite or virus in culture; type: cell-based, Escherichia coli; conditions: Escherichia coli
In short: (§1)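 Using 2-fold compound series and a 5×10^5 CFU/ml inoculum in CaMHB, plates incubate 18 h at 35° C; growth inhibition is read as turbidity at 600 nm and verified visually.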

[1] = tested on: ECM6007 aac(6′) + aph(2″); test: microbe, parasite or virus in culture; type: cell-based, Escherichia coli; conditions: Escherichia coli
In short: as §1

[2] = tested on: Citrobacter freundii CFM1000 ATCC 8090; test: MIC, representative strains; type: cell-based; conditions: ATCC8090, read-out: MIC Citrobacter freundii CFM1000 ATCC 8090
Description: (§2) To compare microbiological activity of the test compounds, minimum inhibitory concentrations (MIC.s) were determined. Antibiotic MICs were obtained using the broth microdilution method according to Clinical and Laboratory Standards Institute (CLSI) approved guidelines (Methods for dilution antimicrobial susceptibility tests for bacteria that grow aerobically; approved standard—7th ed. CLSI document M7-A7. Clinical and Laboratory Standards Institute, Wayne, Pa., incorporated herein by reference in its entirety). Antibiotics were dissolved as specified by CLSI (Performance standards for antimicrobial susceptibility testing; Seventeenth informational supplement. CLSI document M100-S17. Clinical and Laboratory Standards Institute, Wayne, Pa., incorporated herein by reference in its entirety), and were serially diluted 2-fold in cation adjusted Mueller Hinton Broth (CaMHB) at 2× concentration. Bacterial inoculums were prepared in CaMHB by suspension of a colony from an agar plate that was prepared the previous day to obtain a final concentration of 5×10^5CFU/ml. The plates were incubated for 18 hours at 35° C. […] MIC.s were determined by reading the turbidity of plate wells using a SpectraMax Plus384 plate reader (Molecular Devices, Sunnyvale, Calif., USA) at 600 nm and were confirmed by visual inspection.

[3] = tested on: Enterobacter aerogenes EAM1000 ATCC 13048; test: MIC, representative strains; type: cell-based; conditions: Klebsiella aerogenes, ATCC13048, read-out: MIC Enterobacter aerogenes EAM1000 ATCC 13048
Description: as §2

[4] = tested on: Enterobacter cloacae ECLM1000 ATCC 13047; test: MIC, representative strains; type: cell-based; conditions: ATCC13047, read-out: MIC Enterobacter cloacae ECLM1000 ATCC 13047
Description: as §2

[5] = tested on: Pseudomonas aeruginosa PAM2859 multiple pumps deleted; test: MIC, representative strains; type: cell-based; conditions: read-out: MIC Pseudomonas aeruginosa PAM2859 multiple pumps deleted
Description: as §2

[6] = tested on: Pseudomonas aeruginosa PAM2900 PAM2859/pXY; test: MIC, representative strains; type: cell-based; conditions: read-out: MIC Pseudomonas aeruginosa PAM2900 PAM2859/pXY
Description: as §2

[7] = tested on: Staphylococcus aureus SAM1001 ATCC 25923; test: MIC, representative strains; type: cell-based; conditions: ATCC25923, read-out: MIC Staphylococcus aureus SAM1001 ATCC 25923
Description: as §2

[8] = tested on: 143 clinical isolates of various species of Enterobacteriacea; test: MIC against clinical isolates of Enterobacteriacea; type: cell-based; conditions: for MIC50: MIC of 50% population; for MIC50 / MIC90: 143 clinical isolates of Enterobacteriacea; for MIC90: MIC of 90% population; for share of strains of Enterobacteriacae in which the compound was more potent than the other (44 vs. 45): by ratio of MICs
Description: as §2
Table 9 summarizes results of testing 44 and 45 against 143 clinical isolates of various species of Enterobacteriacea.

[9] = Aminoglycoside cytotoxicity in HK-2 cells (Alamar Blue); type: cell-based, Human; conditions: human
Description: (§3) Human kidney cortex proximal tubule cells (HK-2) were purchased from ATCC and maintained according to manufacturer's recommendations in Keratinocyte Serum-Free Media (SFM; Invitrogen), with 0.05 mg/ml bovine pituitary extract and 5 ng/ml of Epidermal growth factor.
(§4) Solutions of aminoglycosides at a concentration of 50 mg/mL (both control and novel test compounds) were prepared in sterile deionized water. Before treatment of cells, the concentrated drug solutions were diluted to the appropriate concentration in Keratinocyte SFM {20, 10, 5, 2.5, 1.25, 0.6, 0.3, and 0 mM}. Pentamidine was used as a positive control.
(§5) HK-2 cells were seeded at 2.5*10^4 cells/well density in 96-well plates in Keratinocyte SFM and placed in a 37° C. tissue culture CO2 incubator. […]. Each treatment was performed in duplicate. […] Drug solutions were aspirated and replaced with 0.1 ml of 5% Alamar Blue (Abd Serotec) cell proliferation reagent in Keratinocyte SFM. Plates were read on a Molecular Devices Gemini EM fluorometer pre-warmed at 37° C. at […]. Plates were read at 0 and 4 hrs, and were incubated at 37° C. in a CO2 incubator in between reads. The fluorescence signal at the 0 h timepoint was subtracted from that at 4 h to account for background fluorescence.
(§6) The cytotoxicity data were reported as the amount of drug producing a 50% decrease in Alamar Blue signal relative to the no drug treatment control.

[10] = tested on: Human kidney cortex proximal tubule cells (HK-2); test: as above; type: cell-based
Description: as §3, §4, §5, §6

[11] = tested on: Staphylococcus aureus (ATCC 29213); test: MIC, broth microdilution; conditions: Staphylococcus aureus
[12] = tested on: Pseudomonas aeruginosa (ATCC 27853); test: MIC, broth microdilution; conditions: Pseudomonas aeruginosa
[13] = tested on: Acinetobacter baumannii (ATCC 19606); test: MIC, broth microdilution; conditions: Acinetobacter baumannii
[14] = Table 3, read-out: Compound MIC on Bacterial Strains: ECM6003 rmtB
[15] = Table 8, read-out: MIC Escherichia coli ECM6003 rmtB
[16] = Table 4, read-out: Compound MIC on Bacterial Strains: Escherichia coli EC1001 acc(6′)-Ib
[17] = Table 8, read-out: MIC Escherichia coli EC1001 aac(6′)-Ib
[18] = 18 h, Table 4, read-out: Compound MIC on Bacterial Strains: Escherichia coli ECM6007 aac(6′) + aph(2″)
[19] = Table 8, read-out: MIC Escherichia coli ECM6007 aac(6′) + aph(2″)
[20] = ATCC29213, read-out: Compound MIC on Bacterial Strains: S. aureus ATCC 29213, QC strain, Table 2
[21] = ATCC29213, read-out: Compound MIC on Bacterial Strains: Staphylococcus aureus SAM1000 ATCC 29213, Table 5
[22] = ATCC29213, read-out: MIC Staphylococcus aureus SAM1000 ATCC 29213, Table 7
[23] = ATCC27853, read-out: Compound MIC on Bacterial Strains: P. aeruginosa ATCC 27853
[24] = ATCC27853, read-out: Compound MIC on Bacterial Strains: Pseudomonas aeruginosa PAM3034 ATCC 27853
[25] = ATCC27853, read-out: MIC Pseudomonas aeruginosa PAM3034 ATCC 27853
[26] = ATCC19606, read-out: Compound MIC on Bacterial Strains: A. baumannii ATCC 19606
[27] = ATCC19606, read-out: MIC Acinetobacter baumannii ACM1003 ATCC 19606

In the case of `CN[C@@H]1C(O)[C@@H](OC2C(O)C(O[C@H]3O[C@H](CNC[C@@H](O)CO)CCC3N)[C@@H](N)C[C@H]2NC(=O)[C@@H](O)CN)OCC1(C)O` (stereo partly shown) [Compound 44], the MIC (ECM6003 rmtB; [14]) is reported as over 8 µg/mL, the MIC (ECM6003 rmtB; [15]) is reported as over 8 µg/mL and the MIC (EC1002 aph(3′)-IV) is reported as under 1 µg/mL. It also gave an MIC (EC1001 acc(6′)-Ib; [16]) of under 1 µg/mL, an MIC (EC1001 acc(6′)-Ib; [17]) of under 1 µg/mL and an MIC [1, 18] of under 1 µg/mL. It also gave an MIC [1, 19] of under 1 µg/mL, an MIC [2] of under 1 µg/mL and an MIC [3] of under 1 µg/mL. For the same molecule, the MIC [4] was under 1 µg/mL, the MIC [5] was under 1 µg/mL and the MIC [6] was over 8 µg/mL. The MIC [7] was under 1 µg/mL, the MIC50 [8] was 0.5 µg/mL and the MIC90 [8] was 2 µg/mL. The “share of strains of Enterobacteriacae in which the compound was more potent than the other (44 vs. 45)” value [8] was about 75%, the IC50 at 24 h [9] was over 20 mM and the “cytotoxicity in HK-2 cells (in words)” value [10] was “essentially non-cytotoxic”. For the same molecule, the MIC [11, 20] was under 1 µg/mL, the MIC [11, 21] was under 1 µg/mL and the MIC [11, 22] was under 1 µg/mL. The MIC [12, 23] was 1 to 8 µg/mL (≈ 1.64 to 13.1 µM), the MIC [12, 24] was 1 to 8 µg/mL (≈ 1.64 to 13.1 µM) and the MIC [12, 25] was 1 to 8 µg/mL (≈ 1.64 to 13.1 µM). The MIC [13, 26] was over 8 µg/mL and the MIC [13, 27] was over 8 µg/mL.

Work on `CN[C@@H]1[C@@H](O)[C@@H](O[C@@H]2[C@@H](O)[C@H](O[C@H]3O[C@H](CNC[C@H](O)CO)CC[C@H]3N)[C@@H](N)C[C@H]2NC(=O)[C@@H](O)CN)OC[C@]1(C)O` [Compound 45, (S)-3-amino-N-((1R,2S,3S,4R,5S)-5-amino-4-((2R,3R,6S)-3-amino-6-(((S)-2,3-dihydroxypropylamino)methyl)tetrahydro-2H-pyran-2-yloxy)-2-((2R,3R,4R,5R)-3,5-dihydroxy-5-methyl-4-(methylamino)tetrahydro-2H-pyran-2-yloxy)-3-hydroxycyclohexyl)-2-hydroxypropanamide] yielded an MIC (ECM6003 rmtB; [14]) of over 8 µg/mL, an MIC (ECM6003 rmtB; [15]) of over 8 µg/mL and an MIC (EC1002 aph(3′)-IV) of 1 to 8 µg/mL (≈ 1.64 to 13.1 µM). The MIC (EC1001 acc(6′)-Ib; [16]) was 1 to 8 µg/mL (≈ 1.64 to 13.1 µM), the MIC (EC1001 acc(6′)-Ib; [17]) was 1 to 8 µg/mL (≈ 1.64 to 13.1 µM) and the MIC [1, 18] was under 1 µg/mL. For the same molecule, the MIC [1, 19] was under 1 µg/mL, the MIC [2] was under 1 µg/mL and the MIC [3] was 1 to 8 µg/mL (≈ 1.64 to 13.1 µM). The MIC [4] was under 1 µg/mL, the MIC [5] was under 1 µg/mL and the MIC [6] was over 8 µg/mL. It also gave an MIC [7] of under 1 µg/mL, an MIC50 [8] of 1 µg/mL and an MIC90 [8] of 2 µg/mL. The “share of strains of Enterobacteriacae in which the compound was more potent than the other (44 vs. 45)” value [8] was “less than 2%”, the IC50 at 24 h [9] was 10 mM and the “fold more cytotoxic than compound 44” value ([10]; human, 48 h) was “at least 2 fold”. For the same molecule, the MIC [11, 20] was 1 to 8 µg/mL (≈ 1.64 to 13.1 µM), the MIC [11, 21] was 1 to 8 µg/mL (≈ 1.64 to 13.1 µM) and the MIC [11, 22] was 1 to 8 µg/mL (≈ 1.64 to 13.1 µM). The MIC [12, 23] was 1 to 8 µg/mL (≈ 1.64 to 13.1 µM), the MIC [12, 24] was 1 to 8 µg/mL (≈ 1.64 to 13.1 µM) and the MIC [12, 25] was 1 to 8 µg/mL (≈ 1.64 to 13.1 µM). It also gave an MIC [13, 26] of over 8 µg/mL and an MIC [13, 27] of over 8 µg/mL.
